For 6 compounds, Ki results are on record in publication PMC6943496, “Antiplasmodial Activity of Nitroaromatic Compounds: Correlation with Their Reduction Potential and Inhibitory Action on Plasmodium falciparum Glutathione Reductase” (Molecules, 2019).

Structures are written as SMILES.

In one experiment the target is T1, P. falciparum glutathione reductase (PfGR) (Plasmodium falciparum, UniProt Q94655).
T1 construct: gene GR; 2 x 55 kD homodimer with FAD
T1 sequence (Q94655 2-500): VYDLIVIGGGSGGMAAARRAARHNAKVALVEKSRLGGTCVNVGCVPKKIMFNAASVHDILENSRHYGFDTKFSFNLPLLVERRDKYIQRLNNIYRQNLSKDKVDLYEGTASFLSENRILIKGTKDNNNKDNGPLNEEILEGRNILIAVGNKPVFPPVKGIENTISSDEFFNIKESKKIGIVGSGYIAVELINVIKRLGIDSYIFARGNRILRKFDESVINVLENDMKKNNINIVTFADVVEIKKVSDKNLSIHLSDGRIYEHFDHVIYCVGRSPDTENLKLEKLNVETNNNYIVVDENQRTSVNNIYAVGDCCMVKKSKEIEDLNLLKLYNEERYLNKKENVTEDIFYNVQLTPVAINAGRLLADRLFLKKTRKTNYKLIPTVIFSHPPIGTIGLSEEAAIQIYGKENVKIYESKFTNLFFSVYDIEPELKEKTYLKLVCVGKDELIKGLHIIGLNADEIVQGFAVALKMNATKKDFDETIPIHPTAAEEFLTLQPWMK
The experiment in a line: NADPH oxidation at […] nm, Cleland plot ([…]/kcat vs [I]). The class given is biochemical.
In general, Ki refers to the dissociation constant of the complex between target and ligand, obtained from inhibition or displacement. Low readings indicate tighter binding, high ones weaker binding. With `O=C(O)c1ccc([N+](=O)[O-])cc1` [compound 2, 4-Nitrobenzoic acid], the Ki worked out at 1200 ± 180 µM. Take `CC(=O)c1ccc([N+](=O)[O-])cc1` [compound 4, 4-Nitroacetophenone]: the Ki was 70 ± 11 µM. On the same count and under the same terms, the value for `O=Cc1ccc([N+](=O)[O-])cc1` [compound 7, 4-Nitrobenzaldehyde] was 25 ± 4 µM; that for `O=C1CN(/N=C/c2ccc([N+](=O)[O-])o2)C(=O)N1` [compound 10, Nitrofurantoin] was 9 ± 1 µM; that for `O=[N+]([O-])c1ccc(/C=N/O)o1` [compound 11, Nifuroxime] was 32 ± 5 µM.

A further experiment concerns the target T1, P. falciparum glutathione reductase (PfGR). The experiment in a line: GSH-mediated DTNB reduction at […] nm, Cleland plot. The class given is biochemical.
Take `NC(=O)c1cc(N2CC2)c([N+](=O)[O-])cc1[N+](=O)[O-]` [compound 3, 5-(Aziridin-1-yl)-2,4-dinitrobenzamide]: the inhibition constant Ki came to 350 ± 40 µM.
